Laboratory results taken from publication PMC11362529, “Exploring the neuroprotective potential of Nrf2-pathway activators against annonacin toxicity” (Scientific Reports, 2024).

Legend:
Assay type in all cases: cell-based, human
LUHMES cells [1] = experiment: Mitochondrial activity by MTT reduction; settings: 24 h; for MTT reduction: protective concentration of compound + 20 nM annonacin
Procedure: Mitochondrial activity was estimated by the reduction of MTT (3-(4,5-dimethylthiazol-2-yl)-2,5-diphenyltetrazolium, Sigma-Aldrich). Briefly, LUHMES cells were seeded on PLO/FN-coated 48-well microplates, in triplicates. After a 24 h treatment with 20 nM of annonacin and the protective concentrations of Nrf2-pathway activators in glucose-reduced medium, cells were incubated with 0.5 mg/ml of MTT dissolved in PBS, at 37 °C for 30 min. After that, the medium was removed and the plate was frozen at -80 °C for 1 h, for cell lysing. Next, the plate was thawed and the MTT crystals were completely dissolved in 250 µl of DMSO with vigorous shaking. The absorbance was measured on a FLUOstar® Omega plate reader at λ = 590 nm, using λ = 630 nm absorbance as a background correction. The obtained results were analyzed with the MARS data analysis software (BMG LabTech). After background subtraction, the data were expressed as a percentage of MTT reduction relative to the control (DMSO-treated) condition. Determination of cellular ATP levels was done by using the ViaLight™ plus kit (Lonza, Basel, Switzerland), following the manufacturer’s instructions. Cells were seeded on PLO/FN-coated 48-well microplates and the pharmacological treatments were done similarly as to the assessment of the MTT reduction. On the next day, the medium was removed and cells were washed once with warm HBSS and rested in 210 µl HBSS. The plate was left to reach RT before adding 70 µl cell lysis reagent to each well, provided by the kit. […] The plate was incubated in the dark for 10 min at RT before the luminescence signal was measured on a FLUOstar® Omega plate reader. The obtained results were analyzed with the MARS data analysis software (BMG LabTech) and expressed as RLUs. For background correction, the RLUs detected for the background control (i.e., 10 µl of ATP monitoring reagent plus combined with 10 µl of cell lysis reagent) were subtracted from the measured RLUs values of all testing conditions.

[2] = test system: Nrf2-knockdown LUHMES cells; experiment: Cell viability in Nrf2-knockdown cells exposed to annonacin (calcein); settings: Nrf2 siRNA, compound + 20 nM annonacin, 48 h
Procedure: (§1) The calcein AM green dye (Thermo Fisher Scientific) was diluted in DMSO to obtain a 1 mM stock solution. The stock solution was further diluted in HBSS (Hanks' balanced salt solution), immediately before incubation, to achieve a final working concentration of 1 μM in the well. The medium was removed, the cells were washed once with warm HBSS, and 200 µl of calcein working solution was added to each well. For background correction, 200 µl of calcein working solution was added to a well without cells (background control). After 30 min of incubation at 37 °C, the calcein solution was removed and the cells were washed once with HBSS. Cells were lysed in a 200 µl volume of 1% Triton™ X-100 in PBS (phosphate buffered saline) and the lysate transferred to a 96‐well black plate for the readout. The fluorescence signal was measured on a FLUOstar® Omega plate reader (BMG LabTech, Ortenberg, Germany) at λ Ex/Em = 485/530 nm and data was analyzed with the MARS data analysis software (BMG LabTech). For background correction, we subtracted the background control signal from the measured values of all experimental conditions. Data were expressed as percentage of viability relative to the control (DMSO-treated) condition.
LUHMES cells seeded on PLO/FN coated 48-well microplates were left to differentiate for 5 days, before being transfected with 25 nM of NRF2-targeting (gene ID 4780) or negative control siRNA (siTOOLs Biotech, Planegg, Germany), in Opti-MEM + GlutaMax medium (Thermo Fisher Scientific) with 0.4% of lipofectamine RNAiMax. After 24 h, the medium was removed and replaced with glucose-reduced medium for the pharmacological treatments, similar as described in the previous sections. Cell viability was determined by calcein assay, after 48 h of treatment, as explained before.

LUHMES cells [3] = experiment: Protective effects against annonacin toxicity, calcein viability assay; settings: with 20 nM annonacin, glucose-reduced medium, 48 h; 40 μM Ki 696–2, 1 μM HPP-D, 15 μM ezetimibe, 4 μM licochalcone A; most protective or highest non-toxic concentration for the others
Procedure: as §1
For pharmacological treatments, we acquired several previously described Nrf2-pathway activators: ezetimibe (Cayman), licochalcone A (MedChem Express, New Jersey, NJ, USA), bardoxolone methyl, saracatinib and PP2 (AbMole BioScience Inc., Houston, TX, USA). The enantiomers Ki 696–1 and Ki 696–2, and the compound HPP-D were kindly provided by Orion Pharma (Espoo, Finland). All compounds were dissolved in DMSO and stored in small aliquots at -80 °C to avoid freeze–thaw cycles. Compound general toxicity was determined on PLO/FN double-coated 48-well microplates as follows: after 4 days of differentiation, LUHMES cells were incubated with the different Nrf2-pathway activators at concentrations ranging from 1 nM to 100 µM, for 96 h. The cell viability was assessed by calcein assay on day 8 of differentiation. Non-toxic concentrations of the Nrf2-pathway activators were selected and used in the pharmacological treatments, in combination with 20 nM of annonacin, in glucose-reduced differentiation medium, over a period of 48 h, similar to an in vitro model reported before. The protective effects of Nrf2-pathway activators against annonacin toxicity were determined in terms of cell viability with the calcein assay.

Row | SMILES | decrease of reduced-MTT compared with healthy control cells (LUHMES cells [1]; 20 nM annonacin alone) [%] | protective effects against annonacin toxicity in Nrf2-knockdown cells [2] | MTT reduction (LUHMES cells [1]) | reduction of annonacin toxicity (LUHMES cells [3]) [%]
1 | CCCCCCCCCCCC[C@@H](O)[C@H]1CC[C@H]([C@H](O)CCCC[C@H](O)CCCCC[C@@H](O)CC2=CC(C)OC2=O)O1 (stereo partly drawn) [annonacin] | 20 |  |  | 
2 | O=C1[C@H](CC[C@H](O)c2ccc(F)cc2)[C@@H](c2ccc(O)cc2)N1c1ccc(F)cc1 [ezetimibe] |  | did not observe an abolishment of the neuroprotective effects | further decreased the amount of MTT reduction | 33
3 | C=CC(C)(C)c1cc(/C=C/C(=O)c2ccc(O)cc2)c(OC)cc1O [licochalcone A] |  | slightly attenuated in Nrf2-knockdown cells | further decreased the amount of MTT reduction | 34.6
4 | Cn1c(Nc2nc3ccc(C(F)(F)F)cc3s2)nc2cc(C(=O)NCCOCCO)ccc21 [HPP-D] |  | slightly attenuated in Nrf2-knockdown cells |  | 21
